According to PMC9786170, “The Pharmacological Potential of Novel Melittin Variants from the Honeybee and Solitary Bees against Inflammation and Cancer” (Toxins, 2022):
Entries after “also recorded” stand apart in the source; their conditions may differ.

What was measured:
HEK293T cells [1] = assay: Ca2+ induction assay (Fluo-8); type: cell-based, human; details: Fluo-8, 0.25, 2.5, 25 µg/mL, partly already at 2.5 µg/mL, n = 4
Method: (§1) Figure 2 Melittin derivates influence cellular Ca^2+ and IP1 levels. (A) For the Ca^2+ induction assay, Fluo-8 pretreated HEK293-T cells were incubated with melittin derivates in the indicated concentrations and the fluorescence was detected. (B) For the Ca^2+ inhibition assay, Fluo-8 pretreated HEK293-T cells were incubated with peptides in the indicated concentrations for 30 min, stimulated with 5 µM ionomycin, and the fluorescence was detected. (C) IP3 has a short lifetime and is rapidly degraded to IP1; therefore, IP1 was determined. For the IP1/IP3 induction assay (left panel), HEK293T cells were incubated with melittin peptides in the indicated concentration for 2 h, a detection reagent was added, and the fluorescence resonance energy transfer signal was detected. For the IP1/IP3 inhibition assay (right panel), HEK293T cells were incubated with melittin peptides in the indicated concentration for 30 min and stimulated with 20 µM ionomycin for 1.5 h. After the addition of the detection reagent, the fluorescence resonance energy transfer signal was detected. Data are expressed as mean ± SEM. (A, B, C (left)) n = 4, (C (right)) n = 3. * p ≤ 0.05 versus control.
(§2) For analysis, 5 × 10^4 HEK293 cells or 2 × 10^4 MDA-MB-231 cells were seeded in a 96-well poly-D-lysine plate, incubated at 37 °C for 24 h, and treated with 4 µM Fluo-8-AM in HBSS for 1 h at 37 °C. After 1 h, the Fluo-8/HBSS was replaced by 100 µL HBSS. Five images per second were taken using an ImageXpress Micro Confocal High Content Imaging System (Molecular Device, San Jose, CA, USA). Melittin peptides (0.25, 2.5, and 25 µg/mL), DMSO (negative control), or 5 µM ionomycin (Sigma Aldrich; Taufkirchen, Germany) (positive control) were added to the cells. For the next 20 s, an image was obtained every second. For the inhibition assay, the peptide-treated samples (30 min) were treated with 5 µM ionomycin and for the next 20 s, an image was obtained every second. The data were analyzed with the MetaXpress Software Version 6 (Molecular Devices, San Jose, CA, USA). A threshold of fluorescence intensity was defined using cells before treatment, and all cells with a fluorescence signal above the threshold level were counted. For the induction assay, the number of cells above the threshold in the toxin-treated samples were related to the cells in the DMSO-treated sample. For the inhibition assay, the number of cells above the threshold in the melittin-treated samples were related to the cells in the ionomycin-treated sample.

RAW264.7 cells [2] = assay: NO inhibition assay (LPS-stimulated, Griess); type: cell-based, murine; details: RAW264.7, peptide 30 min, then 100 ng/mL LPS 24 h, n = 3
Method: Figure 4 Influence of melittin derivates on inflammation-associated cell functions. (A,B) For the NO induction assay (A), RAW264.7 cells were treated with melittin peptides in the indicated concentrations for 24 h. For the NO inhibition assay (B), RAW264.7 cells were pretreated with melittin peptides in the indicated concentrations for 30 min and then stimulated with 100 ng/mL LPS for 24 h. NO was detected in the supernatant using the Griess method. […] THP-1 cell adhesion under static conditions. HUVECs were grown to confluence, preincubated with bee venoms for 30 min, and activated with TNF (10 ng/mL) for 24 h. For the leukocyte adhesion assay, untreated THP-1 cells were stained with CellTracker Green and were allowed to adhere to the treated HUVECs for 5 min. The adhesion of leukocytes onto Ecs was quantified by fluorescence measurements for all cell adhesion experiments. Data are expressed as means ± SEM, (A,B) n = 3, (C) n = 2. * p ≤ 0.05 vs. TNF (positive) control.
2 × 10^4 RAW264.7 macrophages/well were plated in a 96-well plate and cultured for 24 h at 37 °C. To investigate if the melittin peptides induce nitrogen oxide (NO) synthesis, the melittin peptides, control (DMSO), and positive control (100 ng/mL lipopolysaccharide (LPS)) were added. To evaluate the effect of melittin peptides on inhibiting NO synthesis, the cells were pre-incubated with peptides or control (DMSO) for 30 min before 100 ng/mL LPS were added. After 24 h supernatants were collected and stored at −80 °C.
NO was determined with the Griess method. Briefly, for the standard curve, different concentrations of sodium nitrite (0–50 µM) were prepared in the medium. A total of 80 µL cell supernatant or standard sample were added to a 96-well microplate and subsequently, 20 µL sulfanilamide solution (120 mg sulfanilamide in 30 mL 1 N hydrochloric acid) and 20 µL naphthylenediamine solution (180 mg N-(1-naphthyl)ethylenediamine dihydrochloride in 30 mL water) were added. After 15 min of incubation, the absorbance (540 nm) was measured with the EnSpire Plate Reader (PerkinElmer, Waltham, MA, USA). For the induction assay, the NO levels of the melittin peptides-treated samples were related to the DMSO-treated sample. For the inhibition assay, the NO levels of the melittin peptides-treated cells were correlated with the LPS-treated samples.

HEK293T cells [3] = assay: Ca2+ inhibition assay (ionomycin-stimulated, Fluo-8); type: cell-based, human; details: Fluo-8, peptide 30 min, then 5 µM ionomycin, n = 4
Method: as §1, §2

RAW264.7 cells [4] = assay: Cell viability assay (WST-8/Orangu formazan) in RAW264.7 cells; type: cell-based, murine
Method: Figure 1 Toxicity characterization of cells treated with melittin peptides. (A,B) For the viability assay, RAW264.7 (A) or HEK293T (B) cells were treated with bee venom compounds in the indicated concentrations for 24 h. Cells were incubated with WST-8 and the formed formazan was detected by absorbance measurements. (C) For the proliferation assay, HMEC-1 cells were grown in low density and treated after 24 h with the indicated peptide (25 µg/mL) for 72 h. Cells were stained with crystal violet solution. The amount of DNA-bound crystal violet was detected by absorbance measurements. (D) The number of sub-diploidic cells was determined by staining with propidium iodide (PI) and quantified to assess apoptosis of HUVECs. Data are expressed as mean ± SEM. (A) n = 3, (B) n = 4, (C) n = 2–3, (D) n = 2. * p ≤ 0.05 versus control.
For assessing the cytotoxicity of all peptides, various cell types and assays were utilized. To determine the cell viability of HEK293T and RAW246.7 cells, the Orangu^TM assay (Cell Guidance Systems Ltd., Cambridge, UK) was used, as previously described. 2 × 10^5 HEK293T or 2 × 10^5 RAW246.7 were seeded in 96-well plates. Different concentrations (0, 0.25, 2.5, 25 µg/mL) of melittin peptides or vehicle (DMSO) were added. After 24 h of incubation at 37 °C and 5% CO2, 10 µL of Orangu^TM cell counting solution was added and incubated for 60 min. After incubation, absorbance was measured at a wavelength of 450 nm with a reference at 650 nm at an EnSpire 2300 Multimode Plate Reader (Perkin Elmer, Lübeck, Germany). To calculate cell viability, the absorbance of vehicle-treated cells was set to 100%, and the melittin derivates-treated samples were correlated to them.

Substance | induction of Ca2+ release (HEK293T cells [1]) | inhibition of LPS-induced NO synthesis (RAW264.7 cells [2]) | inhibition of ionomycin-induced Ca2+ release (HEK293T cells [3]) | reduction of cell viability (RAW264.7 cells [4]; RAW264.7, 25 µg/mL, 24 h, WST-8 formazan absorbance, vehicle = 100%, n = 3) | cytotoxicity in RAW264.7 (RAW264.7 cells [4]; RAW264.7 macrophage, Discussion)
osmin | induced a significant release of Ca^2+; also recorded: induce Ca^2+ release | prevented LPS-induced NO synthesis in a concentration-dependent manner | – | – | –
halictin | – | – | inhibit Ca^2+ levels | – | –
xylopin [Xac3] | induced a significant release of Ca^2+ | prevented LPS-induced NO synthesis in a concentration-dependent manner; also recorded: inhibit NO synthesis | – | more than 90% | induced significant cytotoxicity
halictin [Hal2] | without inducing Ca^2+ release | – | inhibited the ionomycin-induced Ca^2+ release | – | –
xylopin [Xac1] | – | – | inhibit Ca^2+ levels | – | –
codesane | without inducing Ca^2+ release | prevented LPS-induced NO synthesis in a concentration-dependent manner | inhibited the ionomycin-induced Ca^2+ release; also recorded: inhibit Ca^2+ levels | – | –
melectin | induced a significant release of Ca^2+; also recorded: induce Ca^2+ release | prevented LPS-induced NO synthesis in a concentration-dependent manner | – | – | –
